Laboratory results reported in PubChem BioAssay (NCI).
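Five concentrations, 48 hours, 96-well plates. GI50 is the concentration that inhibits growth by half. TGI denotes the concentration required for complete inhibition of growth.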

Legend:
Experiment in all cases: inhibition of tumour cell growth, NCI panel, 48 h
786-0 renal = system: 786-0 renal
A498 renal = system: A498 renal
A549 NSCLC = system: A549 NSCLC
ACHN renal = system: ACHN renal
BT-549 breast = system: BT-549 breast
CAKI-1 renal = system: CAKI-1 renal
CCRF-CEM leukemia = system: CCRF-CEM leukemia
COLO 205 colon = system: COLO 205 colon
DU-145 prostate = system: DU-145 prostate
EKVX NSCLC = system: EKVX NSCLC
HCC-2998 colon = system: HCC-2998 colon
HCT-116 colon = system: HCT-116 colon
HCT-15 colon = system: HCT-15 colon
HL-60(TB) leukemia = system: HL-60(TB) leukemia
HOP-62 NSCLC = system: HOP-62 NSCLC
HOP-92 NSCLC = system: HOP-92 NSCLC
HS 578T breast = system: HS 578T breast
HT29 colon = system: HT29 colon
IGROV1 ovarian = system: IGROV1 ovarian
KM12 colon = system: KM12 colon
LOX IMVI melanoma = system: LOX IMVI melanoma
M14 melanoma = system: M14 melanoma
MALME-3M melanoma = system: MALME-3M melanoma
MCF7 breast = system: MCF7 breast
MDA-MB-231 breast = system: MDA-MB-231 breast
MDA-MB-435 = system: MDA-MB-435
MOLT-4 leukemia = system: MOLT-4 leukemia
NCI-H226 lung = system: NCI-H226 lung
NCI-H23 lung = system: NCI-H23 lung
NCI-H460 lung = system: NCI-H460 lung
NCI-H522 lung = system: NCI-H522 lung
NCI/ADR-RES ovarian = system: NCI/ADR-RES ovarian
OVCAR-3 ovarian = system: OVCAR-3 ovarian
OVCAR-4 ovarian = system: OVCAR-4 ovarian
OVCAR-5 ovarian = system: OVCAR-5 ovarian
OVCAR-8 ovarian = system: OVCAR-8 ovarian
PC-3 prostate = system: PC-3 prostate
RPMI-8226 leukemia = system: RPMI-8226 leukemia
RXF 393 renal = system: RXF 393 renal
SF-268 CNS = system: SF-268 CNS
SF-295 CNS = system: SF-295 CNS
SF-539 CNS = system: SF-539 CNS
SK-MEL-2 melanoma = system: SK-MEL-2 melanoma
SK-MEL-28 melanoma = system: SK-MEL-28 melanoma
SK-MEL-5 melanoma = system: SK-MEL-5 melanoma
SK-OV-3 ovarian = system: SK-OV-3 ovarian
SN12C renal = system: SN12C renal
SNB-19 CNS = system: SNB-19 CNS
SNB-75 CNS = system: SNB-75 CNS
SR leukemia = system: SR leukemia
SW-620 colon = system: SW-620 colon
T-47D breast = system: T-47D breast
TK-10 renal = system: TK-10 renal
U251 CNS = system: U251 CNS
UACC-257 melanoma = system: UACC-257 melanoma
UACC-62 melanoma = system: UACC-62 melanoma
UO-31 renal = system: UO-31 renal
K-562 leukemia = system: K-562 leukemia
MDA-N = system: MDA-N

CNc1ccc(CSc2ccc(C)cc2)cc1
GI50 (786-0 renal): 4.45 µM | TGI (786-0 renal): > 100 µM | GI50 (A498 renal): 0.178 µM | TGI (A498 renal): > 100 µM | GI50 (A549 NSCLC): 5.34 µM | TGI (A549 NSCLC): > 100 µM | GI50 (ACHN renal): 34 µM | TGI (ACHN renal): > 100 µM | GI50 (BT-549 breast): 3.08 µM | TGI (BT-549 breast): 23 µM | GI50 (CAKI-1 renal): 7.94 µM | TGI (CAKI-1 renal): > 100 µM | GI50 (CCRF-CEM leukemia): 0.676 µM | TGI (CCRF-CEM leukemia): 12.2 µM | GI50 (COLO 205 colon): 15.7 µM | TGI (COLO 205 colon): 29.3 µM | GI50 (DU-145 prostate): 31 µM | TGI (DU-145 prostate): > 100 µM | GI50 (EKVX NSCLC): 15.3 µM | TGI (EKVX NSCLC): > 100 µM | GI50 (HCC-2998 colon): 18.8 µM | TGI (HCC-2998 colon): 83.2 µM | GI50 (HCT-116 colon): 32.9 µM | TGI (HCT-116 colon): > 100 µM | GI50 (HCT-15 colon): 12.6 µM | TGI (HCT-15 colon): 35.6 µM | GI50 (HL-60(TB) leukemia): 1.32 µM | TGI (HL-60(TB) leukemia): 4.28 µM | GI50 (HOP-62 NSCLC): > 100 µM | TGI (HOP-62 NSCLC): > 100 µM | GI50 (HOP-92 NSCLC): 2.36 µM | TGI (HOP-92 NSCLC): 25.9 µM | GI50 (HS 578T breast): 56 µM | TGI (HS 578T breast): > 100 µM | GI50 (HT29 colon): 21.7 µM | TGI (HT29 colon): 77.8 µM | GI50 (IGROV1 ovarian): 13 µM | TGI (IGROV1 ovarian): > 100 µM | GI50 (KM12 colon): 8.58 µM | TGI (KM12 colon): > 100 µM | GI50 (LOX IMVI melanoma): 14.5 µM | TGI (LOX IMVI melanoma): > 100 µM | GI50 (M14 melanoma): 13.6 µM | TGI (M14 melanoma): 32.6 µM | GI50 (MALME-3M melanoma): 31.5 µM | TGI (MALME-3M melanoma): > 100 µM | GI50 (MCF7 breast): 21.2 µM | TGI (MCF7 breast): > 100 µM | GI50 (MDA-MB-231 breast): 2.45 µM | TGI (MDA-MB-231 breast): 11.7 µM | GI50 (MDA-MB-435): 13.1 µM | TGI (MDA-MB-435): > 100 µM | GI50 (MOLT-4 leukemia): 2.22 µM | TGI (MOLT-4 leukemia): 29.3 µM | GI50 (NCI-H226 lung): 3.43 µM | TGI (NCI-H226 lung): 16.4 µM | GI50 (NCI-H23 lung): 25 µM | TGI (NCI-H23 lung): > 100 µM | GI50 (NCI-H460 lung): 25.3 µM | TGI (NCI-H460 lung): > 100 µM | GI50 (NCI-H522 lung): 3.62 µM | TGI (NCI-H522 lung): 23.7 µM | GI50 (NCI/ADR-RES ovarian): 21.4 µM | TGI (NCI/ADR-RES ovarian): > 100 µM | GI50 (OVCAR-3 ovarian): 11.7 µM | TGI (OVCAR-3 ovarian): > 100 µM | GI50 (OVCAR-4 ovarian): 7.44 µM | TGI (OVCAR-4 ovarian): > 100 µM | GI50 (OVCAR-5 ovarian): 71.3 µM | TGI (OVCAR-5 ovarian): > 100 µM | GI50 (OVCAR-8 ovarian): 40.5 µM | TGI (OVCAR-8 ovarian): > 100 µM | GI50 (PC-3 prostate): 13.2 µM | TGI (PC-3 prostate): > 100 µM | GI50 (RPMI-8226 leukemia): 1.52 µM | TGI (RPMI-8226 leukemia): 21.6 µM | GI50 (RXF 393 renal): 11.4 µM | TGI (RXF 393 renal): 87.2 µM | GI50 (SF-268 CNS): 14.7 µM | TGI (SF-268 CNS): > 100 µM | GI50 (SF-295 CNS): 22.3 µM | TGI (SF-295 CNS): > 100 µM | GI50 (SF-539 CNS): 3.69 µM | TGI (SF-539 CNS): 24.5 µM | GI50 (SK-MEL-2 melanoma): 38.5 µM | TGI (SK-MEL-2 melanoma): > 100 µM | GI50 (SK-MEL-28 melanoma): 20.3 µM | TGI (SK-MEL-28 melanoma): > 100 µM | GI50 (SK-MEL-5 melanoma): 13.8 µM | TGI (SK-MEL-5 melanoma): 32.6 µM | GI50 (SK-OV-3 ovarian): > 100 µM | TGI (SK-OV-3 ovarian): > 100 µM | GI50 (SN12C renal): 3.62 µM | TGI (SN12C renal): 53.6 µM | GI50 (SNB-19 CNS): 38.6 µM | TGI (SNB-19 CNS): > 100 µM | GI50 (SNB-75 CNS): 11.9 µM | TGI (SNB-75 CNS): > 100 µM | GI50 (SR leukemia): 6.15 µM | TGI (SR leukemia): 90.1 µM | GI50 (SW-620 colon): 18.6 µM | TGI (SW-620 colon): > 100 µM | GI50 (T-47D breast): 13.5 µM | TGI (T-47D breast): > 100 µM | GI50 (TK-10 renal): 40.3 µM | TGI (TK-10 renal): > 100 µM | GI50 (U251 CNS): 9.85 µM | TGI (U251 CNS): > 100 µM | GI50 (UACC-257 melanoma): 36.1 µM | TGI (UACC-257 melanoma): > 100 µM | GI50 (UACC-62 melanoma): 17.3 µM | TGI (UACC-62 melanoma): 52.9 µM | GI50 (UO-31 renal): 1.16 µM | TGI (UO-31 renal): 4.32 µM

COc1ccc2c3c(c4cc(OC)c(OC)cc4c2c1)CN1CCC[C@H]1[C@@H]3O
TGI (A549 NSCLC): > 55.4 µM | TGI (BT-549 breast): 6.76 µM | TGI (CAKI-1 renal): 0.234 µM | TGI (COLO 205 colon): 0.304 µM | TGI (EKVX NSCLC): 0.578 µM | TGI (HCT-116 colon): 1.22 µM | TGI (HCT-15 colon): 1.19 µM | TGI (HOP-62 NSCLC): 2.81 µM | TGI (HT29 colon): 0.373 µM | TGI (IGROV1 ovarian): 0.326 µM | TGI (K-562 leukemia): 0.653 µM | TGI (KM12 colon): 0.341 µM | TGI (M14 melanoma): 1.3 µM | TGI (MALME-3M melanoma): 0.829 µM | TGI (MCF7 breast): > 100 µM | TGI (MDA-MB-435): 4.21 µM | TGI (MDA-N): 0.706 µM | TGI (NCI-H226 lung): 11.5 µM | TGI (NCI-H23 lung): 0.169 µM | TGI (NCI-H522 lung): 2.85 µM | TGI (NCI/ADR-RES ovarian): 26.1 µM | TGI (OVCAR-3 ovarian): > 21.1 µM | TGI (OVCAR-4 ovarian): 31.2 µM | TGI (OVCAR-5 ovarian): > 28.3 µM | TGI (PC-3 prostate): > 41.9 µM | TGI (RPMI-8226 leukemia): 5.17 µM | TGI (RXF 393 renal): 7.64 µM | TGI (SF-295 CNS): 4.03 µM | TGI (SF-539 CNS): 0.829 µM | TGI (SK-MEL-2 melanoma): 0.591 µM | TGI (SK-MEL-28 melanoma): 0.667 µM | TGI (SK-MEL-5 melanoma): 0.398 µM | TGI (SK-OV-3 ovarian): > 100 µM | TGI (SN12C renal): 0.237 µM | TGI (SNB-19 CNS): 2.13 µM | TGI (SR leukemia): 4.87 µM | TGI (SW-620 colon): > 39.8 µM | TGI (UACC-257 melanoma): 0.544 µM
